The source of these data is patent US20080221205A1, “FURAN DERIVATIVES FOR PREVENTING AND CURING OSTEOPOROSIS AND PHARMACEUTICAL COMPOSITIONS CONTAINING THE SAME” (priority 2002, published 2008).

What all share (type): cell-based, mice
For assay [1], the system named is osteoclast progenitor cells. Put plainly: Formation of TRAP-positive multinucleated cells from osteoclast progenitors. As to conditions: concentration not given, control 132. The method, then:
(§1) In order to investigate the effects of the Compound 1 on differentiation and activity of osteoclasts, when differentiation of osteoclast progenitors was induced, the activity of Tartrate-resistant acid phosphatase (TRAP) as an osteoclastic marker enzyme was investigated, and, when differentiated osteoclasts were cultured on calcium phosphate-coated plates (OAAS, OCT Inc.), resorption activity (formation of resorption pits) were measured.
(§2) First, bone marrow cells were isolated, as follow. After sacrificing 7-9 week female mice by cervical dislocation, femur and tibia were excised aseptically while removing attached soft tissues. After cutting both ends of long bones, 1 ml of an enzyme solution, containing 0.1% collagenase (Gibco), 0.05% trypsin and 0.5 mM EDTA (Gibco), was injected to the bone marrow cavity at one end using a syringe with a 26-guage needle, and bone marrow was then collected. After shaking the recovered bone marrow for 30 min, bone marrow cells were collected, and cultured in α-minimum essential medium (α-MEM) supplemented with 10% FBS for 24 hrs. […]
Osteoclasts are derived from hematopoietic cells belonging to the monocyte/macrophage lineage originating in bone marrow. […] The formed TRAP-positive multinucleated cells containing three or more nuclei were counted as osteoclasts, and the counted cell number was compared to that of a control not treated with the Compound 1.

The subject of the next assay is osteoclast formation. Kind of assay: Inhibition rate of furan derivatives versus osteoclast formation (TRAP staining). As to conditions: TRAP-positive multinucleated cells, untreated control set as 100%. The essentials: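 Non-adherent mouse bone-marrow osteoclast precursors cultured 8 days with 20 ng/ml M-CSF and 30 ng/ml RANKL in presence of compound. TRAP-positive cells with ≥3 nuclei counted; inhibition expressed relative to untreated control set at 100%.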

The test system of a further assay is osteoclasts. Kind of assay: Resorption activity of osteoclasts on calcium phosphate-coated plates (resorption pit area). As to conditions: concentration not given. On the procedure:
as §1, §2
The differentiated osteoclasts were cultured on calcium phosphate-coated plates (OAASTM, OCT, Korea) in order to evaluate resorption activity of the cells. […] After washing again with distilled water and drying the plates, the area of formed resorption pits was calculated by means of an Image Pro Plus software. […]

Setting [2] is: listed as compound prepared in Example 1.

With `O=Cc1ccc(CO)o1` [Compound 1, 5-hydroxymethylfuran-2-carboxyaldehyde], the “Number of TRAP-positive multinucleated cells” value in assay [1] was 77; in assay [1] (setting [2]) it was “remarkably reduced”. Moreover, the results for the “Inhibition rate against osteoclast formation, %” value in the assay on osteoclast formation (0.1 μM), with osteoclast formation (1 μM) and in the assay on osteoclast formation (10 μM) were 0%, 0% and 30%, respectively. The results for the “Area of resorption pits compared to control” value in the assay with osteoclasts and in the assay on osteoclasts (setting [2]) were “about 50%” and “inhibit bone resorption activity of osteoclasts”, respectively.
